# From patent US8105980B1, “Method of increasing the content of flavonoids and phenolic substances substances inplants” (Basf Aktiengesellschaft, priority 1999, dated 2012)
# Tests used:
# [1] = test system: Apple plants cv. “Weirouge”; assay: Eriodictyol and luteoliflavan content in young apple leaves after treatment (HPLC); format: in vivo; conditions: for Eriodictyol / Luteoliflavan: 250 ppm to runoff, youngest fully developed leaf
# Procedure: Apple plants cv. “Weirouge” were grown under controlled-environment conditions and treated to runoff point with 250 ppm prohexadione-calcium (formulated as BAS 125 10 W=wettable granules, content 10%). At various points in time after the treatment, the youngest fully developed leaf was harvested from each individual shoot. The freeze-dried leaves which had been ground using a pestle and mortar were extracted with methanol. Flavonoids and related compounds in the concentrated extract were analyzed by HPLC. Separation was performed on Hypersil ODS (particle size 3 μm) on a 250×4 mm column. Elution was carried out at a flow rate of 0.5 ml per minute, and mixtures of formic acid (5% in water) and methanol, increased stepwise from a ratio of 95:5 to 10:90 (v/v) were used. Phenolic acids and flavonols were detected at 280 nm. Flavan-3-ols were determined by post-column derivatization with p-dimethylaminocinnamaldehyde at 640 nm. For methodological details, see Treutter et al. (1994), Journal of Chromatography A 667, 290-297.
# Vines cv. “Dornfelder” = assay: Treatment of Dornfelder vines: ripeness, acid, pigmentation and taste of harvested grapes; format: in vivo, grapevine
# Procedure: Vines cv. “Dornfelder” were treated twice at different points in time with the formulation BAS 125 10W, which contains prohexadione-calcium. 1000 g of prohexadione-calcium in 1000 l of spray mixture were applied per ha per treatment.
# The 1st application was carried out at developmental stage 73 before the berries developed their color, and the 2nd application 10 days thereafter.
# Untreated control: 69° Oechsle, acid: 7.3 g/l; treated control: 67° Oechsle, acid: 7.4 g/l.
# shoot tissue of apples = shoot tissue of apples after exposure; cited from earlier work
# apple tissue cultures = conditions: cited from earlier work
# [2] = two applications of 1000 g/ha in 1000 l spray mixture (BAS 125 10W), at harvest
substance,measurement,setting,value
prohexadione-calcium,Eriodictyol,[1]; 12 days after treatment,17 g/kg dry matter
same,Luteoliflavan,[1]; 12 days after treatment,0 g/kg dry matter
same,Eriodictyol,[1]; 21 days after treatment,27 g/kg dry matter
same,Luteoliflavan,[1]; 21 days after treatment,34 g/kg dry matter
same,eriodictyol concentration in treated leaves,[1]; after 12 and 21 days,markedly increased
same,pigmentation of treated grapes,Vines cv. “Dornfelder”; compared with untreated grapes,less pronounced
same,taste of treated grapes,Vines cv. “Dornfelder”; compared with untreated grapes,no difference was observed
same,acid of harvested grapes,Vines cv. “Dornfelder”; [2],7.4 g/L
same,degree of ripeness of harvested grapes,Vines cv. “Dornfelder”; [2],67 ° Oechsle
same,catechin and cyanidin in treated tissue,shoot tissue of apples,"not detectable in the treated tissue, or found in considerably reduced amounts only"
same,luteoliflavan and eriodictyol amounts,shoot tissue of apples,relatively large amounts
same,content of phenolic substances,apple tissue cultures,increased several times
